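Dose response: 5 concentrations. Exposure: 48 h. Format: 96-well plates. Endpoint: linear interpolation; highest concentration if not reached. Abbreviation: GI50, concentration required for 50% inhibition of growth. TGI is the concentration that stops growth completely.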

Test systems include SK-MEL-28 melanoma; NCI/ADR-RES ovarian; U251 CNS; UO-31 renal; OVCAR-3 ovarian; UACC-62 melanoma; SK-OV-3 ovarian; OVCAR-5 ovarian; ACHN renal.
Test in all cases: NCI tumour cell line growth inhibition, 48 h

As to `C1=C2CNCC3=Cc4ccc5ccccc5c4OC23Oc2c1ccc1ccccc21`, the GI50 in the assay on SK-MEL-28 melanoma is 7.38 µM; with NCI/ADR-RES ovarian, 2.1 µM; in the assay on U251 CNS, 3.26 µM; in the assay on UO-31 renal it was 3.54 µM; in the assay with OVCAR-3 ovarian it was 2.34 µM; in the assay on UACC-62 melanoma, 5.05 µM. The GI50 with SK-OV-3 ovarian was 3.41 µM. Also, the TGI stood at 6.06 µM with NCI/ADR-RES ovarian; 14.8 µM in the assay with U251 CNS; 21.5 µM in the assay on UO-31 renal; 5.5 µM in the assay on OVCAR-3 ovarian; 21.7 µM in the assay with UACC-62 melanoma; 12.8 µM in the assay with SK-OV-3 ovarian.

As for `c1ccc(NC[Si]23OCCN(CCO2)CCO3)cc1`, the TGI in the assay with OVCAR-5 ovarian, in the assay on SK-MEL-28 melanoma, with ACHN renal, with U251 CNS, in the assay on UO-31 renal and in the assay with OVCAR-3 ovarian was over 100 µM throughout. The TGI with UACC-62 melanoma and in the assay with SK-OV-3 ovarian was over 100 µM throughout.

As for `COc1ccc2[nH]c3c(=O)[nH]ncc3c2c1`, the TGI in the assay with OVCAR-5 ovarian, in the assay on SK-MEL-28 melanoma, in the assay with ACHN renal, with U251 CNS, with UO-31 renal and in the assay with OVCAR-3 ovarian was over 100 µM each time. Also, the TGI in the assay with UACC-62 melanoma and in the assay on SK-OV-3 ovarian was over 100 µM throughout.

Take `NC(=O)c1c[se]c(C2OC(COP(=O)(O)CP(=O)(O)OCC3OC(n4cnc5c(N)ncnc54)C(O)C3O)C(O)C2O)n1` (centres undefined): the TGI in the assay with OVCAR-5 ovarian, with SK-MEL-28 melanoma, in the assay on ACHN renal, with U251 CNS, in the assay on UO-31 renal and in the assay on OVCAR-3 ovarian was over 100 µM each time. The same molecule had a TGI in the assay with SK-OV-3 ovarian of over 100 µM.

With `O=C1C(c2ccccc2)=C(c2ccccc2)[C@H](c2ccccc2)[C@]1(Cc1nnn(-c2ccc([N+](=O)[O-])cc2)c1N1CCOCC1)c1ccccc1`, the TGI in the assay with SK-MEL-28 melanoma, with ACHN renal, in the assay on U251 CNS, with OVCAR-3 ovarian, with UACC-62 melanoma and with SK-OV-3 ovarian was over 37.5 µM throughout.

Consider `COC(=O)C1(F)C(=O)NC(=O)NC1OC` (centres undefined), for which the TGI in the assay with OVCAR-5 ovarian, with SK-MEL-28 melanoma, with ACHN renal, in the assay with U251 CNS, in the assay with UO-31 renal and in the assay on OVCAR-3 ovarian was over 100 µM in each case. The TGI in the assay with UACC-62 melanoma and in the assay with SK-OV-3 ovarian was over 100 µM each time.

As for `CC[P+]1(CC)CCCC1`, the TGI in the assay on OVCAR-5 ovarian, with SK-MEL-28 melanoma, in the assay on ACHN renal, with U251 CNS, in the assay on UO-31 renal and with OVCAR-3 ovarian was over 100 µM each time. In addition, the TGI in the assay with UACC-62 melanoma and in the assay on SK-OV-3 ovarian was over 100 µM in each case.

Turning to `NS(=O)(=O)c1ccc(NC(=O)c2cccn3c(=O)c4ccccc4nc23)cc1`, the TGI with SK-MEL-28 melanoma, in the assay with ACHN renal, in the assay with U251 CNS, in the assay with UO-31 renal, in the assay on OVCAR-3 ovarian and in the assay on UACC-62 melanoma was over 100 µM in each case. For the same molecule, in the assay with SK-OV-3 ovarian, the TGI is over 100 µM.

On to `COC(=O)c1cc2c3c(ccc2[nH]1)N(C(=O)c1cc2c4c(ccc2[nH]1)N(C(=O)c1cc2c5c(ccc2[nH]1)N(C(N)=O)CC5)CC4)CC3`, for which the TGI in the assay on OVCAR-5 ovarian is over 100 µM; with SK-MEL-28 melanoma, over 100 µM; with ACHN renal, over 27.8 µM; in the assay with U251 CNS, over 21.9 µM; with UO-31 renal, 8.47 µM; in the assay on OVCAR-3 ovarian, over 28.9 µM. Moreover, the TGI with UACC-62 melanoma was over 19.8 µM; with SK-OV-3 ovarian, 8.02 µM.

Consider `CC1(C)OC(COCCOCCCCCO)C(COCCOCCCCCO)O1` (centres undefined), for which the TGI in the assay with OVCAR-5 ovarian, in the assay on SK-MEL-28 melanoma, in the assay on ACHN renal, in the assay with U251 CNS, with UO-31 renal and in the assay with OVCAR-3 ovarian was over 100 µM throughout. Moreover, the TGI in the assay with UACC-62 melanoma and in the assay on SK-OV-3 ovarian was over 100 µM throughout.

Consider `C[C@@]12CCCC(=O)N1[C@@H](CO)C(c1ccccc1)O2` (some centres undefined), for which the TGI with OVCAR-5 ovarian, in the assay with SK-MEL-28 melanoma, with ACHN renal, with U251 CNS, in the assay with OVCAR-3 ovarian and with UACC-62 melanoma was over 100 µM in each case.

In the case of `O=[N+]([O-])C1C2C=CC(C2)[C@H]1c1ccc(Cl)cc1Cl` (some centres undefined), the TGI is over 100 µM in the assay with OVCAR-5 ovarian; over 100 µM in the assay on SK-MEL-28 melanoma; over 100 µM in the assay with ACHN renal; over 100 µM in the assay on U251 CNS; 67.2 µM in the assay with UO-31 renal.

For `COc1nc2c(c(O)c(C)c(=O)n2OC2OC(COC(C)=O)C(OC(C)=O)C(OC(C)=O)C2OC(C)=O)c(=O)n1C` (centres undefined), the TGI in the assay on OVCAR-5 ovarian, with SK-MEL-28 melanoma, in the assay on ACHN renal, with U251 CNS, with UO-31 renal and in the assay on UACC-62 melanoma was over 100 µM in each case.

With `COc1ccc(C2NCCc3c2[nH]c2ccccc32)cc1` (centres undefined), the TGI in the assay on OVCAR-5 ovarian, in the assay with SK-MEL-28 melanoma, in the assay with ACHN renal, in the assay with U251 CNS, in the assay on UO-31 renal and in the assay on OVCAR-3 ovarian was over 100 µM throughout. The TGI with UACC-62 melanoma and in the assay on SK-OV-3 ovarian was over 100 µM throughout.

With `CC(=O)OCCC(O[Si](c1ccccc1)(c1ccccc1)C(C)(C)C)C(C)(C)O` (centres undefined), the TGI was over 100 µM in the assay with OVCAR-5 ovarian; over 100 µM in the assay on SK-MEL-28 melanoma; over 100 µM in the assay on ACHN renal; over 100 µM in the assay with U251 CNS; 68.7 µM with UO-31 renal; 62.2 µM with OVCAR-3 ovarian. Moreover, the TGI with UACC-62 melanoma and in the assay with SK-OV-3 ovarian was over 100 µM each time.

Source of the values: PubChem BioAssay (NCI).
